Reference: patent US20190002436A1, “RESPIRATORY SYNCYTIAL VIRUS INHIBITORS” (MEDIVIR AB, priority 2015, published 2019)

tested on: RSV (Long); assay: RSV cytopathic effect (CPE)-based viral replication assay; type: cell-based, respiratory syncytial virus (RSV); settings: human respiratory syncytial virus, HEp-2, 72 h, HEp-2 cells infected with RSV Long at MOI 0.015; 3 days at 37° C.; cell viability by CellTiter-Glo luminescence; read-out: EC50 (nm)
Summary of the method: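 HEp-2 cells, 2,500 per well in DMEM with 2% heat-inactivated FBS, treated with 10-point compound dilutions and infected with RSV Long at MOI 0.015. After 3 days at 37 °C, 5% CO2, viability read by CellTiter-Glo luminescence; EC50 derived from CPE data.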

Row | EC50 [nM] | SMILES
1 | 22 | NC(c1ccc(-c2c(CN3C(=O)C4(CCN(C(=O)C5(N)CC5)CC4)c4ccncc43)ncc3ccccc23)cn1)C(F)(F)F (stereo not shown) [Example 2042]
2 | 110 | O=c1n(Cc2ncc3cc(Cl)ccc3c2CCCCO)c2cnccc2n1C1CC1 [Example 19b, 3-((7-chloro-4-(4-hydroxybutyl)isoquinolin-3-yl)methyl)-1-cyclopropyl-1H-imidazo[4,5-c]pyridin-2(3H)-one]
3 | 2.8 | COC(=O)N1CC2(C1)C(=O)N(Cc1ncc3ccccc3c1-c1ccc(C#N)nc1)c1ccccc12 [Example 44c, Methyl 1′-((4-(6-cyanopyridin-3-yl)isoquinolin-3-yl)methyl)-2′-oxospiro[azetidine-3,3′-indoline]-1-carboxylate]
4 | 4 | NC(=O)c1ccc(-c2c(CN3C(=O)C4(CCN(C(=O)C(N)C(F)(F)F)CC4)c4ccncc43)ncc3ccccc23)cn1 (stereo not shown) [Example 2007]
5 | 19 | CS(=O)(=O)c1ccc(-c2c(Cn3c(=O)n(C4CC4)c4ccncc43)ncc3ccccc23)cn1 [Example 70c, 1-Cyclopropyl-3-((4-(6-(methylsulfonyl)pyridin-3-yl)isoquinolin-3-yl)methyl)-1H-imidazo[4,5-c]pyridin-2(3H)-one]
6 | 2.8 | CN(C)C(=O)c1ccc(-c2c(CN3C(=O)C4(CCN(C(=O)C5(N(C)C)CC5)CC4)c4ccncc43)ncc3ccccc23)cn1 [Example 119b, 5-(3-((1-(1-(dimethylamino)cyclopropanecarbonyl)-2′-oxospiro[piperidine-4,3′-pyrrolo[2,3-c]pyridin]-1′(2′H)-yl)methyl)isoquinolin-4-yl)-N,N-dimethylpicolinamide]
7 | 2.7 | NC(=O)c1ccc(-c2c(CN3C(=O)C4(CCN(C(=O)[C@@H](N)CO)CC4)c4ccncc43)ncc3ccccc23)cn1 [Example 2032]
8 | 41 | O=c1n(Cc2ncc3cc(F)ccc3c2CCCCO)c2cnccc2n1C1CC1 [Example 6g, 1-cyclopropyl-3-((7-fluoro-4-(4-hydroxybutyl)isoquinolin-3-yl)methyl)-1H-imidazo[4,5-c]pyridin-2(3H)-one]
9 | 11 | N#Cc1ccc(-c2c(CN3c4ccccc4[C@]4(C[C@H](O)C4)C3=O)ncc3ccccc23)cn1 [Example 82]
10 | 46 | COC(=O)N1CC2(C1)C(=O)N(Cc1ncc3cc(C#N)c(F)cc3c1-c1cccnc1)c1ccccc12 [Example 2039]
11 | 10 | CN(C)C1(C(=O)N2CC3(C2)C(=O)N(Cc2ncc4ccccc4c2-c2ccc(C#N)nc2)c2ccccc23)CC1 [Example 62, 5-(3-((1-(1-(dimethylamino)cyclopropanecarbonyl)-2′-oxospiro[azetidine-3,3′-indolin]-1′-yl)methyl)isoquinolin-4-yl)picolinonitrile]
12 | 0.75 | CS(=O)(=O)Nc1ccc(-c2c(CN3C(=O)C4(CN(C(N)=O)C4)c4ccccc43)ncc3ccccc23)cc1 [Example 117, 1′-((4-(4-(methylsulfonamido)phenyl)isoquinolin-3-yl)methyl)-2′-oxospiro[azetidine-3,3′-indoline]-1-carboxamide]
13 | 4.6 | NC(=O)N1CC2(C1)C(=O)N(Cc1ncc3ccccc3c1CCCCO)c1ccccc12 [Example 55, 1′-((4-(4-hydroxybutyl)isoquinolin-3-yl)methyl)-2′-oxospiro[azetidine-3,3′-indoline]-1-carboxamide]
14 | 13 | NC1(C(=O)N2CCC3(CC2)C(=O)N(Cc2ncc4ccccc4c2-c2cnc(C(F)(F)F)s2)c2cnccc23)CC1 [Example 2028]
15 | 18 | COC(=O)N1CCC(n2c(=O)n(Cc3ncc4cccc(F)c4c3CCCCO)c3cnccc32)CC1 [Example 30, Methyl 4-(3-((5-fluoro-4-(4-hydroxybutyl)isoquinolin-3-yl)methyl)-2-oxo-2,3-dihydro-1H-imidazo[4,5-c]pyridin-1-yl)piperidine-1-carboxylate]
16 | 0.45 | COC(=O)N1CC2(C1)C(=O)N(Cc1ncc3ccccc3c1-c1ccncc1)c1ccccc12 [Example 97, Methyl 2′-oxo-1′-((4-(pyridin-4-yl)isoquinolin-3-yl)methyl)spiro[azetidine-3,3′-indoline]-1-carboxylate]
